Values joined by “and” are separate entries in the source; they are usually repeats but may differ in a detail not shown here. Equal entries are not always repeated.
Experiments:
[1] = test system: HIV; assay: Model fit of 2-LTR dynamics following raltegravir intensification (nonlinear mixed-effects, Bayesian MCMC); set-up: species or system human
Excerpt: Previous work has been done on identifying HIV model parameters from experiments involving the use of integrase inhibitors. These models, however, considered only standard viral load measurements, not measurements of 2-LTR circle frequency. We introduce a simple model of the dynamics of the concentrations of actively infected cells y(t) and cells containing 2-LTR episomes c(t) in the site of episome formation. We model the behavior both in the absence of raltegravir uII=0 and in the presence of raltegravir uII=1.
The reproductive ratio of the virus prior to raltegravir intensification is R, and the reproductive ratio after raltegravir intensification is (1−ηII)R, where ηII is the effectiveness of raltegravir at interrupting infection events that would otherwise have occurred without intensification. The reproductive ratios are defined as the average number of infected cells created per infected cell in a single generation. If the virus was replicating efficiently prior to intensification (R0>1), then the measured R would be approximately equal to 1 at equilibrium, as the efficient replication would necessarily be target cell limited. If the infection is controlled prior to intensification (R0<1), then the measured reproductive ratio R will be approximately equal to R0.
2-LTR circles may also be formed at an integrase inhibitor-enhanced rate in the presence of raltegravir. The rate at which infection events are interrupted by raltegravir after intensification is ηIIRay which, when multiplied by the probability 0<kII<1 that the interruption of an infection even leads to the formation of a 2-LTR episome, gives us the rate of integrase inhibitor-enhances 2-LTR formation kIIηIIRay. φ≧0 is the ratio between the intrinsic rate and the raltegravir-enhanced rate of 2-LTR formation.
These dynamics can be written in the form of Equation 1: y=−(1−(1−ηIIuII)R)ay+ye ċ=φkII(1−ηIIuII)Ray+kIIηIIuIIRay−δc (1)
To reduce the parametric covariance, we introduced a re-parametrized parameter A=kIIye/δ to replace kIIye. […]
The posterior distribution of the parameter likelihood given the measured 2-LTR values was computed using a Bayesian Markov-Chain Monte-Carlo method with Gibbs Sampling, as in References 56, 75, 78 and 79 with noninformative prior distributions for the parameters as follows:
Markov-Chain Monte-Carlo methods were used to fit Equation 5 to the experimental data for 13 patients, with shared parameters {θ, δ} and patient-specific parameters {R; ηII, kIIye}, using the measurement uncertainty model described in the Materials and Methods section. […] The maximum-likelihood predicted 2-LTR concentrations for each patient, together with the 95% prediction interval, is shown compared to the measured data in FIG. 3.

[2] = test system: HIV 2-LTR circles; details: cited from earlier work
[3] = test system: HIV; details: duration of the experiment; 13 patients of the experimental group; cited from earlier work

Cc1nnc(C(=O)NC(C)(C)c2nc(C(=O)NCc3ccc(F)cc3)c(O)c(=O)n2C)o1 [raltegravir]
effect on level of cryptic replication ([1]; addition of raltegravir to HAART, interpretation of the 2-LTR data): reduces the level of cryptic replication to undetectable levels | increase in likelihood of 2-LTR formation when raltegravir interrupts integration ([1]; from 95% credible interval of φ): 250-1000 times | ηII (ratio-reduction in R following raltegravir intensification; drug efficacy of raltegravir), MLE ([1]; maximum likelihood (posterior mode), patient-specific fitted parameter, one table row per patient): 0.01 (3×) and 0.19 and 0.02 and 0.49 and 0.77 and 0.05 and 0.03 and 0.79 and 0.81 and 0.99 and 0.08 | ηII (ratio-reduction in R following raltegravir intensification; drug efficacy of raltegravir), Median ([1]; posterior median, patient-specific fitted parameter, one table row per patient): 0.78 and 0.21 and 0.02 and 0.53 (3×) and 0.74 and 0.38 and 0.04 and 0.39 and 0.50 and 0.55 and 0.12 | patients with 2-LTR containing cells observed ([2]; HAART intensified by raltegravir for 48 weeks, experimental group of 45): 13/45 and 13 of the 45 | 2-LTR quantification, Week Post-Intensification 0 ([2]; week 0 (baseline at start of raltegravir intensification), individual HAART-suppressed patients, one table row per patient, censoring limit 1.20): <1.20 2-LTR per 10^6 PBMC (7×) and 1.76 2-LTR per 10^6 PBMC and 38.62 2-LTR per 10^6 PBMC and 35.30 2-LTR per 10^6 PBMC and 9.98 2-LTR per 10^6 PBMC and 2.99 2-LTR per 10^6 PBMC | 2-LTR quantification, Week Post-Intensification 2 ([2]; week 2 of raltegravir intensification, individual patients, one table row per patient, censoring limit 1.20): 21.47 2-LTR per 10^6 PBMC and 48.16 2-LTR per 10^6 PBMC and 72.77 2-LTR per 10^6 PBMC and 30.55 2-LTR per 10^6 PBMC and 5.84 2-LTR per 10^6 PBMC and 12.98 2-LTR per 10^6 PBMC and 3.05 2-LTR per 10^6 PBMC and <1.20 2-LTR per 10^6 PBMC (4×) and 23.69 2-LTR per 10^6 PBMC and 1.98 2-LTR per 10^6 PBMC | 2-LTR quantification, Week Post-Intensification 4 ([2]; week 4 of raltegravir intensification, individual patients, one table row per patient, censoring limit 1.20): <1.20 2-LTR per 10^6 PBMC (3×) and 9.07 2-LTR per 10^6 PBMC and 5.37 2-LTR per 10^6 PBMC and 13.42 2-LTR per 10^6 PBMC and 3.19 2-LTR per 10^6 PBMC and 2.68 2-LTR per 10^6 PBMC and 24.75 2-LTR per 10^6 PBMC and 21.07 2-LTR per 10^6 PBMC and 3.03 2-LTR per 10^6 PBMC | 2-LTR quantification, Week Post-Intensification 12 ([2]; week 12 of raltegravir intensification, individual patients, one table row per patient, censoring limit 1.20): 10.38 2-LTR per 10^6 PBMC and 7.38 2-LTR per 10^6 PBMC and 1.26 2-LTR per 10^6 PBMC and <1.20 2-LTR per 10^6 PBMC (4×) and 1.61 2-LTR per 10^6 PBMC and 9.55 2-LTR per 10^6 PBMC and 39.64 2-LTR per 10^6 PBMC and 30.11 2-LTR per 10^6 PBMC | 2-LTR quantification, Week Post-Intensification 24 ([2]; week 24 of raltegravir intensification, individual patients, one table row per patient, censoring limit 1.20): 2.73 2-LTR per 10^6 PBMC and 2.20 2-LTR per 10^6 PBMC and <1.20 2-LTR per 10^6 PBMC (8×) and 1.88 2-LTR per 10^6 PBMC and 1.29 2-LTR per 10^6 PBMC | 2-LTR quantification, Week Post-Intensification 48 ([2]; week 48 of raltegravir intensification, individual patients, one table row per patient, censoring limit 1.20): <1.20 2-LTR per 10^6 PBMC (9×) and 7.04 2-LTR per 10^6 PBMC | plasma viral load [3]: remained below the standard limit of detection
